The text below walks through data of US20210361570A1, “IN SITU GELLING POLYSACCHARIDE-BASED NANOPARTICLE HYDROGEL COMPOSITIONS, AND METHODS OF USE THEREOF” (McMaster University, priority 2020, published 2021).

Data set [1] in a line: L-DOPA anti-oxidation in hydrogels (visual colour). The settings on record: 3 mg L-DOPA, MES pH 6 or PBS pH 7.4, 12 h at 37° C. The class given is physicochemical. The procedure:
200 μL of 25 w/v % (DS 0.5) SNP-CHO or SNP-APBA was combined with 200 μL of CMCh (pH 7) to form a 400 μL bulk hydrogel in a 12 plate well. Gels were loaded with 3 mg of L-DOPA by suspending the powered drug into the aqueous SNP precursor before gelling. The gels were submerged in 3 mL of 0.1M MES (pH 6) buffer or 10 mM PBS (pH 7.4) buffer. Oxidation of L-DOPA was assessed visually, with the formation of dark yellow-brown and black precipitates indicating L-DOPA oxidation to its dopaquinone and dopachrome polymer forms, and assessed with respect to controls of L-DOPA at the same concentration in each of the respective buffers (without a hydrogel).

For data set [2], the system named is C. elegans. The experiment in a line: 6-OHDA Parkinsonian model, electrotaxis movement testing. The data set is classed as in vivo. The settings on record: L-DOPA free or loaded in 25 w/v % hydrogels (DS=0.5). The protocol: The stability of L-DOPA delivered using the SNP-CHO@CMCh or SNP-APBA@CMCh bulk hydrogels was assessed using an in vivo C. elegans assay. Wild-type late larval stage worms were exposed to 30 mM 6-OHDA in ascorbic acid for 1 hr to induce dopaminergic neurodegeneration. After 24 hours, worms were added to a 12-well plate in which each well contains 400 μL of SNP-CHO@CMCh or SNP-APBA@CMCh bulk hydrogel as well as E. coli (for food) to form a 3 mL liquid culture in which worms are continuously exposed to released L-DOPA.
Worms were sampled at various time points (0 h, 4 h, 8 h, 12 h, 24 h, 48 h) to assess movement. Motility changes, assessed based on the average speed of the worms in mm/s (minimum n=20 worms per sample and time point tested), were measured using an in-house voltage-induced electrotaxis microfluidic assay developed to quantify drug induced dopaminergic neuron signal-mediated movement. In addition to the test sample (Group 1), control groups of no 6-OHDA, no hydrogel (Group 2, untreated control), 6-OHDA, no hydrogel (Group 3, drug control); 6-OHDA, blank hydrogel (Group 4, material control); and 6-OHDA, drug(s) without hydrogel (Group 5, delivery vehicle control) were assessed (minimum n=20 worms/group). L-DOPA was loaded in both SNP-CHO@CMCh and SNP-APBA@CMCh 25 w/v % hydrogels (DS=0.5) at 3 or 9 […].

Data set [3] deals with Sprague-Dawley rats, MK-801 model of schizophrenia. The experiment in a line: MK-801 schizophrenia model, social interaction behavioral testing. The data set is classed as in vivo, rat. The procedure:
Age-matched male Sprague-Dawley rats (250-300 g, Charles River Canada, St. Constant, QC, Canada) received care that complied with protocols approved by the Animal Research Ethics Board at McMaster University and the guidelines of the Canadian Council on Animal Care. Animals were housed individually in standard cages on a reverse 12 h light cycle. Upon arrival, animals were habituated to their holding room for 1 week, followed by a week of handling (touching and petting for at least 5 minutes each, every other day) prior to any testing. Animals were handled regularly throughout the duration of all experimentation (2-3 times per week outside of experiments) and housed in a room maintained at 22° C. with 50% humidity and access to food and water ad libitum. The animal masses at the end of the experiments were between 400-550 g.
For the in situ animal injections, all drugs were dissolved in artificial cerebrospinal fluid (aCSF) solution formulated in-lab comprised of 120 mM NaCl, 4.8 mM KCl, 1.2 mM KH2PO4, 1.2 mM MgSO4, 25 mM NaHCO3, 2.5 mM CaCl2), and 10 mM D-glucose. Further, PAOPA (with or without hydrogel formulation) was administered at concentration of 0.5 mg/kg intranasally, selected based on effective concentrations observed via dose-dependent intraperitoneal (IP) administrations. The PAOPA was added equally to both the CMCh and the SNP solutions and allowed to sit for 24 h to allow for any polymer-drug interactions to occur before gelation. All precursor solutions were passed through a 0.45 µm filter (VWR) to sterilize them prior to injection into a live animal. […]
To administer the payload for the five experimental groups, a single rat was removed from its cage and placed into a closed anesthesia box with transparent sides for proper observation. Aerosolized isoflurane (with oxygen) was passed into the box until the rat was determined to be anesthetized via foot pinching reflex test. […]
Rats were assessed for social interaction with and without MK-801 and drug/formulation administration. […]

Data set [4] has the same test system. The settings on record: PAOPA 1 mg/kg IP, literature; cited from earlier work.
Data set [5] has as its system B16-F10 melanoma tumor. Briefly: In vivo anti-tumor test (relative tumor volume). Also on record: species or system C57BL/6 mice. The settings on record: 5.0 mg/kg DOX tail vein every three days, 10-day period. The procedure:
(§1) The antitumor effect of DOX, DOX-Clusters (control), and Dox-iClusters was evaluated by tracking the relative tumor volume (V/V0) after treatment with the nanocluster nanogels. C57BL/6 mice were injected intradermally with B16-F10 melanoma tumor cells, allowing the tumors to grow to ˜20 mm^3 by day 7 after the injections. The mice were treated by tail vein injection of 200 μL of PBS, DOX, DOX-iCluster and DOX-Cluster every three days (5.0 mg/kg of DOX for all formulations), after which both the tumor size and body weight were monitored regularly over a 10-day period.

Data set [6] in a line: Body weight in the in vivo anti-tumor test. Also on record: species or system C57BL/6 mice. To be noted: 5.0 mg/kg DOX tail vein every three days, ten days. The protocol: as §1

Turning to `N[C@@H](Cc1ccc(O)c(O)c1)C(=O)O` [L-DOPA, 3,4-dihydroxy-L-phenylalanine], the “L-DOPA oxidation (colour)” value in data set [1] was “became black with oxidation”. Besides, in data set [2], the “duration of improved swimming speed / motility vs 6-OHDA control” value is listed as 4 h.

`NC(=O)CN1CC[C@@H](NC(=O)[C@@H]2CCCN2)C1=O` [PAOPA]: the social interaction deficits entry in data set [3] (0.5 mg/kg IN 30 minutes before MK-801, assessed 30 minutes post-MK-801) is “expected attenuation of social interaction deficits”; in data set [3] (0.5 mg/kg IN, MK-801 challenge 24 hours later), “the benefits of PAOPA were no longer observed”. Further, the “total social interaction time relative to untreated control” value in data set [3] (no MK-801, intranasal, PAOPA 0.5 mg/kg or unloaded hydrogel) is reported as “neither increased nor decreased total interaction times”. Further, the social interaction time entry in data set [4] is “did not affect social interaction time”.

In the case of `COc1cccc2c1C(=O)c1c(O)c3c(c(O)c1C2=O)C[C@@](O)(C(=O)CO)C[C@@H]3O[C@H]1C[C@H](N)[C@H](O)[C@H](C)O1.Cl` [free DOX, doxorubicin hydrochloride], the “relative tumor volume (V/V0)” value in data set [5] is 24 × volume increase. Moreover, the body weight entry in data set [6] was “significantly reduced body weight”.
